Calls of active or inactive are those of the source. The rule behind the calls is not given here.
Legend:
Mus musculus [1] = assay: Anticonvulsant activity against pentylenetetrazole-induced seizures in Mus musculus Swiss albino (mouse) assessed as onset of seizures at 4 mg/kg, po administered 1 hr prior challenge; type: functional, organism-based; parameters: dose 4 mg/kg
Mus musculus [2] = assay: Anxiolytic activity in Mus musculus Swiss albino (mouse) assessed as time spent in light chamber at 2 mg/kg by light-dark box test; type: functional
Mus musculus [3] = organism: Mus musculus; assay: Anxiolytic activity in Mus musculus Swiss albino (mouse) assessed as time spent in open arm by elevated plus maze test; type: functional
Mus musculus [4] = assay: Toxicity in Mus musculus Swiss albino (mouse) assessed as mortality at 4 mg/kg, po; type: organism-based; parameters: dose 4 mg/kg, route oral; settings: in vivo
Mus musculus [5] = assay: Anticonvulsant activity against maximal electroshock-induced seizures in Mus musculus Swiss albino (mouse) assessed as time duration of tonic limb extensor at 40 mg/kg; type: functional
Mus musculus [6] = assay: Anticonvulsant activity against maximal electroshock-induced seizures in Mus musculus Swiss albino (mouse) assessed as animals protected at 40 mg/kg; type: functional
Mus musculus [7] = assay: Toxicity in Mus musculus Swiss albino (mouse) assessed as mortality at 25 mg/kg, po; type: organism-based; parameters: dose 25 mg/kg, route oral; settings: in vivo
Mus musculus [8] = assay: Anticonvulsant activity against pentylenetetrazole-induced seizures in Mus musculus Swiss albino (mouse) assessed as onset of seizures at 25 mg/kg, po administered 1 hr prior challenge; type: functional
Mus musculus [9] = assay: Anticonvulsant activity against maximal electroshock-induced seizures in Mus musculus Swiss albino (mouse) assessed as time duration of tonic limb extensor at 25 mg/kg; type: functional
Mus musculus [10] = assay: Antidepressant activity in Mus musculus Swiss albino (mouse) assessed as duration of immobility at 25 mg/kg, ip measured after 1 hr by forced swim test test relative to pretreatment; type: functional; settings: route intraperitoneal
Mus musculus [11] = assay: Anticonvulsant activity against maximal electroshock-induced seizures in Mus musculus Swiss albino (mouse) assessed as animals protected at 25 mg/kg; type: functional
Mus musculus [12] = assay: Anxiolytic activity in Mus musculus Swiss albino (mouse) assessed as time spent in light chamber at 25 mg/kg by light-dark box test; type: functional
Mus musculus [13] = assay: Antidepressant activity in Mus musculus Swiss albino (mouse) assessed as as increase in mobile phase at 25 mg/kg, ip measured after 1 hr by tail suspension test; type: functional; settings: route intraperitoneal
Mus musculus [14] = assay: Antidepressant activity in ip dosed Mus musculus Swiss albino (mouse) assessed as duration of immobility measured after 1 hr by forced swim test relative to pretreatment; type: functional

CN1C(=O)CN=C(c2ccccc2)c2cc(Cl)ccc21 [DIAZEPAM]
Activity (Mus musculus [1]): Active | Time (Mus musculus [2]): 193 s | Time (Mus musculus [3]): 58.76 s | Activity (Mus musculus [4]): Non-toxic

O=C1NC(=O)C(c2ccccc2)(c2ccccc2)N1 [PHENYTOIN]
Time (Mus musculus [5]): 0 s | Activity (Mus musculus [6]): 100%

O=C(Nc1nnc(Sc2ccc(S(=O)(=O)Cl)cc2)s1)c1ccccc1
Activity (Mus musculus [7]): Non-toxic | Time (Mus musculus [8]): 102.26 s | Time (Mus musculus [9]): 6.25 s | Activity (Mus musculus [10]): -33.58% | Activity (Mus musculus [11]): 0% | Time (Mus musculus [12]): 166.66 s | Time (Mus musculus [3]): 34.11 s | Activity (Mus musculus [13]): 49.29%

NS(=O)(=O)c1ccc(Sc2nnc(NC(=O)c3ccccc3)s2)cc1
Activity (Mus musculus [7]): Toxic | Time (Mus musculus [8]): 86.98 s | Time (Mus musculus [9]): 6.7 s | Activity (Mus musculus [10]): -33.22% | Activity (Mus musculus [11]): 0% | Time (Mus musculus [12]): 163.66 s | Time (Mus musculus [3]): 38.5 s | Activity (Mus musculus [13]): 49.86%

O=C(Nc1nnc(Sc2ccc(F)cc2)s1)c1ccccc1
Activity (Mus musculus [7]): Non-toxic | Time (Mus musculus [8]): 91.416 s | Time (Mus musculus [9]): 6.37 s | Activity (Mus musculus [10]): -20.3% | Activity (Mus musculus [11]): 0% | Time (Mus musculus [12]): 153.66 s | Time (Mus musculus [3]): 32.694 s | Activity (Mus musculus [13]): 28.45%

CN(C)CCCN1c2ccccc2CCc2ccccc21.Cl [IMIPRAMINE HYDROCHLORIDE]
Activity (Mus musculus [14]): -47.48%

Cc1ccc(Sc2nnc(NC(=O)c3ccccc3)s2)cc1
Activity (Mus musculus [7]): Non-toxic | Time (Mus musculus [8]): 78.35 s | Time (Mus musculus [9]): 7.35 s | Activity (Mus musculus [10]): 1.35% | Activity (Mus musculus [11]): 0% | Time (Mus musculus [12]): 143 s | Time (Mus musculus [3]): 31.13 s | Activity (Mus musculus [13]): 17.26%

O=C(Nc1nnc(Sc2ccc(Br)cc2)s1)c1ccccc1
Activity (Mus musculus [7]): Toxic | Time (Mus musculus [8]): 78.27 s | Time (Mus musculus [9]): 7.96 s | Activity (Mus musculus [10]): 1.1% | Activity (Mus musculus [11]): 0% | Time (Mus musculus [12]): 153.16 s | Time (Mus musculus [3]): 20.88 s | Activity (Mus musculus [13]): 12%

O=C(Nc1nnc(Sc2ccc(C(Cl)(Cl)Cl)cc2)s1)c1ccccc1
Activity (Mus musculus [7]): Non-toxic | Time (Mus musculus [8]): 71.21 s | Time (Mus musculus [9]): 7.08 s | Activity (Mus musculus [10]): -22.15% | Activity (Mus musculus [11]): 0% | Time (Mus musculus [12]): 152.33 s | Time (Mus musculus [3]): 20.38 s | Activity (Mus musculus [13]): 30.7%

O=C(Nc1nnc(Sc2ccc(C(F)(F)F)cc2)s1)c1ccccc1
Activity (Mus musculus [7]): Toxic | Time (Mus musculus [8]): 81.74 s | Time (Mus musculus [9]): 6.18 s | Activity (Mus musculus [10]): -29.78% | Activity (Mus musculus [11]): 0% | Time (Mus musculus [12]): 163 s | Time (Mus musculus [3]): 29.86 s | Activity (Mus musculus [13]): 46.93%

Source: ChEMBL document CHEMBL3046241, “Synthesis and evaluation of 2-amino-5-sulfanyl-1,3,4-thiadiazoles as antidepressant, anxiolytic, and anticonvulsant agents” (Med Chem Res, 2009)
